pIC50: −log10 of the molar value. Where two headings read alike, the source gives them in different places.
Key:
Type in all cases: biochemical
[1] = molecular target: T1, KRAS G12V (Homo sapiens, UniProt P01116, G12V); assay: HTRF nucleotide exchange assay (NEA), KRAS G12V
T1 construct: 4 nM KRAS; aa1-188 containing the G12V, G12C, G12A or G12S amino acid substitution
Method in brief: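 After a further 30 minutes at room temperature, time-resolved fluorescence was read on a PerkinElmer Envision. The buffer contained 10 mM HEPES pH7.3, 150 mM NaCl, 5 mM MgCl2, 0.05% BSA, 0.0025% NP-40 and 100 mM KF. DMSO (0.3%) gave the Max signal and unlabeled GOP (1 μM) the Min signal. IC50 came from four-parameter logistic fits of at least two independent replicates.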

[2] = molecular target: T2, KRAS G12C (Homo sapiens, UniProt P01116, G12C); assay: HTRF nucleotide exchange assay (NEA), KRAS G12C
T2 construct: 4 nM KRAS; aa1-188 containing the G12V, G12C, G12A or G12S amino acid substitution
T2 sequence (P01116 1-188 isoform P01116-2 G12C): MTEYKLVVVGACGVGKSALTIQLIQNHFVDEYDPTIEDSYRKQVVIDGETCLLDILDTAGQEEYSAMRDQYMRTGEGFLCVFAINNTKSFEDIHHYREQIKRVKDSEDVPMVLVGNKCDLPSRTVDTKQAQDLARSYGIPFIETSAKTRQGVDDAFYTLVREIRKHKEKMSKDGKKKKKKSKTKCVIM
Method in brief: (§1)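 Assay buffer: 10 mM HEPES pH7.3, 150 mM NaCl, 5 mM MgCl2, 100 mM KF, BSA and NP-40. KRAS aa1-188 with His tag (2 nM WT/G13D, 4 nM G12C/G12S) was exposed to compound for 60 min before the labeled GTP was added (200 nM solution). Fluorescence was read after 30 min at room temperature.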

[3] = molecular target: T3, KRAS G12A (Homo sapiens, UniProt P01116, G12A); assay: HTRF nucleotide exchange assay (NEA), KRAS G12A
T3 construct: 4 nM KRAS; aa1-188 containing the G12V, G12C, G12A or G12S amino acid substitution
T3 sequence (P01116 1-188 isoform P01116-2 G12A): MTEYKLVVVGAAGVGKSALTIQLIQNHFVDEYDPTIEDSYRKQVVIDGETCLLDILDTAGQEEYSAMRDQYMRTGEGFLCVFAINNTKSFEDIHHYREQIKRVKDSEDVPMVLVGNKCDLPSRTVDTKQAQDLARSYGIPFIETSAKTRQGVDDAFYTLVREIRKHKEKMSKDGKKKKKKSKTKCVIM
Description: (§2) The capacity of compounds to bind KRAS G12D, other KRAS mutants and wildtype RAS isoforms was quantified using a HTRF nucleotide exchange assay. Recombinant human RAS protein (2 nM; aa1-188 KRAS WT, HRAS WT, NRAS WT, or KRAS containing the containing the G12D, G13D or Q61H amino acid substitutions, or 4 nM KRAS; aa1-188 containing the G12V, G12C, G12A or G12S amino acid substitution, an N-terminal 6×His-tag and leader sequence), and 2 nM Europium-labeled anti-6×His antibody were mixed in assay buffer (10 mM HEPES pH7.3, 150 mM NaCl, 5 mM MgCl2, 0.05% BSA, 0.0025% NP-40 and 100 mM KF) with various concentrations of compound in a 384-well plate and a volume of 5 uL. After a 60-minute incubation at room temperature, 5 ul of 200 nM EDA-GTP-DY647P1 (diluted in assay buffer) was added to the plate. Following 30-minute incubation at room temperature, time-resolved fluorescence was measured on a PerkinElmer Envision plate reader. DMSO (0.3%) and unlabeled […] (1 μM) or equivalent tool compound were used to generate the Max and Min assay signals, respectively. Data was analysed using a four-parameter logistic model to calculate IC50 values, with at least two independent replicates were performed for each compound.

[4] = molecular target: T4, KRAS G12S (Homo sapiens, UniProt P01116, G12S); assay: HTRF nucleotide exchange assay (NEA), KRAS G12S
T4 construct: 4 nM KRAS; aa1-188 containing the G12V, G12C, G12A or G12S amino acid substitution
T4 sequence (P01116 1-188 isoform P01116-2 G12S): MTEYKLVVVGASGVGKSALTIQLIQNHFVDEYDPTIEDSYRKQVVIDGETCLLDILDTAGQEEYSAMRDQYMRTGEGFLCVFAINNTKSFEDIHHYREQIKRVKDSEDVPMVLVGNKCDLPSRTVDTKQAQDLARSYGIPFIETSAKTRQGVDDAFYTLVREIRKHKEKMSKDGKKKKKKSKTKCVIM
Description: as §2

[5] = molecular target: T5, KRAS G13D (Homo sapiens, UniProt P01116, G13D); assay: HTRF nucleotide exchange assay (NEA), KRAS G13D
T5 construct: Recombinant human RAS protein (2 nM); aa1-188 KRAS WT
T5 sequence (P01116 1-188 isoform P01116-2 G13D): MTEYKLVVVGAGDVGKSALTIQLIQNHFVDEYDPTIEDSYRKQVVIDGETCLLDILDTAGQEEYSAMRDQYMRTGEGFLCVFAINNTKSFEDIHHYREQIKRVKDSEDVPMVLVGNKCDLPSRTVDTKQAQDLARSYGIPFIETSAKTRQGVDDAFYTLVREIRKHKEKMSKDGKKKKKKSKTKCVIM
Description: as §2

[6] = molecular target: T6, KRAS Q61H (Homo sapiens, UniProt P01116, Q61H); assay: HTRF nucleotide exchange assay (NEA), KRAS Q61H
T6 construct: Recombinant human RAS protein (2 nM); aa1-188 KRAS WT
T6 sequence (P01116 1-188 isoform P01116-2 Q61H): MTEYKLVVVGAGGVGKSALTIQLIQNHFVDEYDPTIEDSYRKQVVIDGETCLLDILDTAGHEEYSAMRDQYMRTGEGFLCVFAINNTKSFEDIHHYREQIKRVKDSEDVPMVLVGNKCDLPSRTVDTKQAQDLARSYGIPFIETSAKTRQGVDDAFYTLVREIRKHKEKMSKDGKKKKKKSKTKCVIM
Description: as §2

[7] = molecular target: T7, KRAS G12D (Homo sapiens, UniProt P01116, G12D); assay: HTRF nucleotide exchange assay (NEA), KRAS G12D; conditions: recombinant human KRAS G12D aa1-188, 2 nM; lowest class = % inhibition at 10 μM
T7 construct: Recombinant human RAS protein (2 nM)
T7 sequence (P01116 1-188 isoform P01116-2 G12D): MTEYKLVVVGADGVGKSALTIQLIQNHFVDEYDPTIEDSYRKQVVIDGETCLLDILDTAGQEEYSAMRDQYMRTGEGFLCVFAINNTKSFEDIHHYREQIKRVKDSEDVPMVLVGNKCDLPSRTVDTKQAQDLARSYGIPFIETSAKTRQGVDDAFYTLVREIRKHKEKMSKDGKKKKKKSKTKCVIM
Method in brief: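 Compound binding to KRAS G12D was measured by HTRF nucleotide exchange. Recombinant human KRAS G12D (aa1-188, N-terminal 6×His-tag, 2 nM) and 2 nM Europium anti-6×His antibody were combined with compound in 5 uL assay buffer in 384-well plates for 60 minutes at room temperature, then 5 ul of 200 nM EDA-GTP-DY647P1 was added for 30 minutes before time-resolved fluorescence reading.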

[8] = molecular target: T8, KRAS WT (Homo sapiens, UniProt P01116); assay: HTRF nucleotide exchange assay (NEA), KRAS WT
T8 construct: Recombinant human RAS protein (2 nM); aa1-188 KRAS WT
T8 sequence (P01116 1-188 isoform P01116-2): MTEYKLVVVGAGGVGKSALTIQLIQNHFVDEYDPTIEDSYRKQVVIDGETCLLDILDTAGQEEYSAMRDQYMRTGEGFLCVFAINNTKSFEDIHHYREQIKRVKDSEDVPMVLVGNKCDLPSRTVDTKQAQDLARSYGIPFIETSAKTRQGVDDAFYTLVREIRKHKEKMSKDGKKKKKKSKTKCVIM
Method in brief: as §1

[9] = recombinant human KRAS G13D aa1-188, 2 nM, lowest class = % inhibition at 10 μM

T1 sequence (P01116 1-188 isoform P01116-2 G12V): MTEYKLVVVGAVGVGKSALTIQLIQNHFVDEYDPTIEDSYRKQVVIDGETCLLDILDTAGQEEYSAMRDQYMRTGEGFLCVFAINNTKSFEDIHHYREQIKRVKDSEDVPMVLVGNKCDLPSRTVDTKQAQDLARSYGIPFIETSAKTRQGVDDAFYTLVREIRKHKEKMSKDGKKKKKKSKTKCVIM

## C#Cc1c(F)ccc2cc(O)cc(-c3ncc4c(N5CCCCCC5)nc(OC[C@@]56CCCN5C[C@H](F)C6)nc4c3F)c12 (relative stereo) [Example 84, 4-[4-(azepan-1-yl)-8-fluoro-2-[[trans-2-fluoro-1,2,3,5,6,7-hexahydropyrrolizin-8-yl]methoxy]pyrido[4,3-d]pyrimidin-7-yl]-5-ethynyl-6-fluoro-naphthalen-2-ol]
[1]
  pIC50: ≥ 8.00
[2]
  pIC50: ≥ 8.00
[3]
  pIC50: ≥ 8.00
[4]
  pIC50: ≥ 8.00
[5]
  pIC50: 5.00 to 7.00
[6]
  pIC50: ≥ 8.00
[7]
  pIC50: ≥ 8.00
[8]
  pIC50: ≥ 8.00

## C#Cc1c(F)ccc2cc(O)cc(-c3ncc4c(NCCCOC)nc(OC[C@@]56CCCN5C[C@H](F)C6)nc4c3F)c12 (relative stereo) [Example 85, 5-ethynyl-6-fluoro-4-[8-fluoro-2-[[trans-2-fluoro-1,2,3,5,6,7-hexahydropyrrolizin-8-yl]methoxy]-4-(3-methoxypropylamino)pyrido[4,3-d]pyrimidin-7-yl]naphthalen-2-ol]
[1]
  pIC50: ≥ 8.00
[2]
  pIC50: ≥ 8.00
[3]
  pIC50: ≥ 8.00
[4]
  pIC50: 7.00 to 8.00
[5]; [9]
  pIC50: < 5.00
[6]
  pIC50: 7.00 to 8.00
[7]
  pIC50: ≥ 8.00
[8]
  pIC50: ≥ 8.00

## Oc1cc(-c2ncc3c(N4CC5CNCC5C4)nc(OCC45CCCN4CCC5)nc3c2F)c2ccccc2c1 (stereo not shown) [Example 1, 4-[4-(2,3,3a,4,6,6a-hexahydro-1H-pyrrolo[3,4-c]pyrrol-5-yl)-8-fluoro-2-(1,2,3,5,6,7-hexahydropyrrolizin-8-ylmethoxy)pyrido[4,3-d]pyrimidin-7-yl]naphthalen-2-ol]
[1]
  pIC50: 5.00 to 7.00
[2]
  pIC50: 5.00 to 7.00
[5]
  pIC50: 5.00 to 7.00
[6]
  pIC50: 5.00 to 7.00
[7]
  pIC50: 7.00 to 8.00
[8]
  pIC50: 5.00 to 7.00

## Oc1cc(-c2ncc3c(N4CCCOCC4)nc(OCC45CCCN4CCC5)nc3c2F)c2ccccc2c1 [Example 3, 4-[8-fluoro-2-(1,2,3,5,6,7-hexahydropyrrolizin-8-ylmethoxy)-4-(1,4-oxazepan-4-yl)pyrido[4,3-d]pyrimidin-7-yl]naphthalen-2-ol]
[1]
  pIC50: ≥ 8.00
[2]
  pIC50: ≥ 8.00
[3]
  pIC50: ≥ 8.00
[4]
  pIC50: 7.00 to 8.00
[5]
  pIC50: 5.00 to 7.00
[6]
  pIC50: 7.00 to 8.00
[7]
  pIC50: ≥ 8.00
[8]
  pIC50: 7.00 to 8.00

## Oc1cc(-c2ncc3c(N4CCC5(CCOC5)CC4)nc(OCC45CCCN4CCC5)nc3c2F)c2ccccc2c1 [Example 8, 4-[8-fluoro-2-(1,2,3,5,6,7-hexahydropyrrolizin-8-ylmethoxy)-4-(2-oxa-8-azaspiro[4.5]decan-8-yl)pyrido[4,3-d]pyrimidin-7-yl]naphthalen-2-ol]
[1]
  pIC50: 5.00 to 7.00
[2]
  pIC50: 5.00 to 7.00
[5]
  pIC50: 5.00 to 7.00
[6]
  pIC50: 5.00 to 7.00
[7]
  pIC50: 5.00 to 7.00
[8]
  pIC50: 5.00 to 7.00

## O=C1CN(c2nc(OCC34CCCN3CCC4)nc3c(F)c(-c4cc(O)cc5ccccc45)ncc23)CCN1 [Example 10, 4-[8-fluoro-2-(1,2,3,5,6,7-hexahydropyrrolizin-8-ylmethoxy)-7-(3-hydroxy-1-naphthyl)pyrido[4,3-d]pyrimidin-4-yl]piperazin-2-one]
[1]
  pIC50: 5.00 to 7.00
[2]
  pIC50: 5.00 to 7.00
[3]
  pIC50: 5.00 to 7.00
[4]
  pIC50: 5.00 to 7.00
[5]; [9]
  pIC50: < 5.00
[7]
  pIC50: 5.00 to 7.00
[8]
  pIC50: 5.00 to 7.00

## O=C1CCN(c2nc(OCC34CCCN3CCC4)nc3c(F)c(-c4cc(O)cc5ccccc45)ncc23)CCN1 [Example 13]
[1]
  pIC50: 5.00 to 7.00
[2]
  pIC50: 5.00 to 7.00
[3]
  pIC50: 5.00 to 7.00
[4]
  pIC50: 5.00 to 7.00
[5]; [9]
  pIC50: < 5.00
[7]
  pIC50: 7.00 to 8.00
[8]
  pIC50: 5.00 to 7.00

## O=C1CN(c2nc(OCC34CCCN3CCC4)nc3c(F)c(-c4cc(O)cc5ccccc45)ncc23)CCCN1 [Example 14, 4-[8-fluoro-2-(1,2,3,5,6,7-hexahydropyrrolizin-8-ylmethoxy)-7-(3-hydroxy-1-naphthyl)pyrido[4,3-d]pyrimidin-4-yl]-1,4-diazepan-2-one]
[1]
  pIC50: 7.00 to 8.00
[2]
  pIC50: 7.00 to 8.00
[3]
  pIC50: 5.00 to 7.00
[4]
  pIC50: 5.00 to 7.00
[5]; [9]
  pIC50: < 5.00
[7]
  pIC50: 7.00 to 8.00
[8]
  pIC50: 5.00 to 7.00

## CC1COCCN(c2nc(OCC34CCCN3CCC4)nc3c(F)c(-c4cc(O)cc5ccccc45)ncc23)C1 (stereo not shown) [Example 19, 4-[8-fluoro-2-(1,2,3,5,6,7-hexahydropyrrolizin-8-ylmethoxy)-4-(6-methyl-1,4-oxazepan-4-yl)pyrido[4,3-d]pyrimidin-7-yl]naphthalen-2-ol]
[1]
  pIC50: 7.00 to 8.00
[2]
  pIC50: 7.00 to 8.00
[3]
  pIC50: 7.00 to 8.00
[4]
  pIC50: 5.00 to 7.00
[5]; [9]
  pIC50: < 5.00
[6]
  pIC50: 5.00 to 7.00
[7]
  pIC50: 7.00 to 8.00
[8]
  pIC50: 7.00 to 8.00

## Oc1cc(-c2ncc3c(N4CCCCC4)nc(OCC45CCCN4CCC5)nc3c2F)c2ccccc2c1 [Example 34, 4-[8-fluoro-2-(1,2,3,5,6,7-hexahydropyrrolizin-8-ylmethoxy)-4-(1-piperidyl)pyrido[4,3-d]pyrimidin-7-yl]naphthalen-2-ol]
[1]
  pIC50: 7.00 to 8.00
[2]
  pIC50: 7.00 to 8.00
[3]
  pIC50: 7.00 to 8.00
[4]
  pIC50: 5.00 to 7.00
[5]; [9]
  pIC50: < 5.00
[7]
  pIC50: 7.00 to 8.00
[8]
  pIC50: 7.00 to 8.00

## Oc1cc(-c2ncc3c(N4CCCSCC4)nc(OCC45CCCN4CCC5)nc3c2F)c2ccccc2c1 [Example 38, 4-[8-fluoro-2-(1,2,3,5,6,7-hexahydropyrrolizin-8-ylmethoxy)-4-(1,4-thiazepan-4-yl)pyrido[4,3-d]pyrimidin-7-yl]naphthalen-2-ol]
[1]
  pIC50: ≥ 8.00
[2]
  pIC50: ≥ 8.00
[3]
  pIC50: ≥ 8.00
[4]
  pIC50: 7.00 to 8.00
[5]; [9]
  pIC50: < 5.00
[6]
  pIC50: 7.00 to 8.00
[7]
  pIC50: 7.00 to 8.00
[8]
  pIC50: 7.00 to 8.00

## Oc1cc(-c2ncc3c(N4CCCC5(CCOC5)C4)nc(OCC45CCCN4CCC5)nc3c2F)c2ccccc2c1 (stereo not shown) [Example 56, 4-[8-fluoro-2-(1,2,3,5,6,7-hexahydropyrrolizin-8-ylmethoxy)-4-(2-oxa-9-azaspiro[4.5]decan-9-yl)pyrido[4,3-d]pyrimidin-7-yl]naphthalen-2-ol]
[1]
  pIC50: 5.00 to 7.00
[2]
  pIC50: 5.00 to 7.00
[3]
  pIC50: 5.00 to 7.00
[4]
  pIC50: 5.00 to 7.00
[5]; [9]
  pIC50: < 5.00
[6]
  pIC50: 5.00 to 7.00
[7]
  pIC50: 5.00 to 7.00
[8]
  pIC50: 5.00 to 7.00
